Counter-ions that a name gives are not always drawn.
Test system: albino rats
Assay: Rat hair growth trial (plucked hair at end of G-2 anagen after topical application)
Type: in vivo
Conditions: for LENGTH (length of hair) / WT/AREA (weight of hair per unit area of skin): G-2 anagen, topical twice daily, 6 rats per group, TBC 5% by weight in vanishing cream base, minoxidil 2% by weight in 65% v/v aqueous ethanol
Protocol: The effect of esters of citric acid on hair growth was assessed using albino rats as an animal model. The rats were chosen from as few litters as possible and were each approximately 27-30 days of age at the start of the trial. Each rat was housed individually to prevent licking.
In each comparison, 6 rats were used in each group and hair growth was assessed as follows: A small patch of normal skin (3cm x 3cm) on the upper back of each rat was selected and hairs were plucked from this area at the start of the trial (G-1 telogen). Test materials or control in a vanishing cream base or an alcoholic lotion, as appropriate, were then applied twice daily until the end of the next anagen, i.e. after a further 20 days from the start of trial (G-2 anagen). Each application of lotion amounted to about 50 mg.
At the end of G2-anagen, hair was plucked again from the same dorsal area, and this was used for measurement of: • i) weight of hair per unit area of skin, • ii) length of hair, and • iii) diameter of hair measured microscopically.
This procedure was employed to compare the effect of topical application to the rat model of a known hair growth promoter, namely minoxidil and a test material as used in accordance with the invention, namely tri-n-butyl citrate.
In this experiment minoxidil was employed at a concentration of 2% by weight in 65% v/v aqueous ethanol and tri-n-butyl citrate was employed at a concentration of 5% by weight in a vanishing cream base.

[1] = end of G-2 anagen, versus control (vanishing cream base)

| Compound | LENGTH (length of hair) [mm] | WT/AREA (weight of hair per unit area of skin) [mg/cm2] | hair diameter, comparison in words [1] | length of hair, comparison in words [1] | weight of plucked hair per unit area, comparison in words [1] |
| --- | --- | --- | --- | --- | --- |
| Nc1cc(N2CCCCC2)nc(N)[n+]1[O-] [Minoxidil, reference compound] | 8.85 ± 0.42 | 16.27 ± 0.97 | – | – | – |
| CCCCOC(=O)CC(O)(CC(=O)OCCCC)C(=O)OCCCC [TBC, tri-n-butyl citrate] | 10.74 ± 1.16 | 17.24 ± 0.97 | similar | marked increase over both control and minoxidil | marked increase over the control |
